For one experiment, the target named is T1, LXRβ full length (FL) (Homo sapiens, UniProt P55055, INS174Q).
T1 construct: the full length (FL) proteins of LXRα (amino acids 1-447); NP005684; NP009052; expressed in transfected cells; host or cells: HEK293
T1 sequence (P55055 with tags, fused parts or gaps INS174Q): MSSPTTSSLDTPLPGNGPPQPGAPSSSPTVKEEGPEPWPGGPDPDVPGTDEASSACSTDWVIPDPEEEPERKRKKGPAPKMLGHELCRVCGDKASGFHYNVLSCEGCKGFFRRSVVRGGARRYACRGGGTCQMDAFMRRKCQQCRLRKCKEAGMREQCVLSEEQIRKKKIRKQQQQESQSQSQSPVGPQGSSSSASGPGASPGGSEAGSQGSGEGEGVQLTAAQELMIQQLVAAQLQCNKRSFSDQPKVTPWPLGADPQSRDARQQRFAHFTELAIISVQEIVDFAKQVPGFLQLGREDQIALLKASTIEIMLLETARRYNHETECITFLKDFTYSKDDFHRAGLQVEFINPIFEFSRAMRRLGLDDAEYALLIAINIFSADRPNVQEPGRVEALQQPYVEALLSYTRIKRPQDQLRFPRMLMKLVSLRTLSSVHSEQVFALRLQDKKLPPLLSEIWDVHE
Kind of experiment: LXR Gal4 reporter transient transfection assay, mammalian two-hybrid, FL-M2H Gal4β. The format is cell-based. The conditions noted are these: HEK293 cells; inverse agonist unless *. The protocol:
(§1) The tested compounds were usually dissolved, tested and stored as 20 mM stock solutions in DMSO. Since sulfonyl acetic acid derivatives tend to decarboxylate under these conditions, these stock solutions were prepared, tested and stored as 20 mM DMSO stock solutions containing 100 mM trifluoroacetic acid (5 equivalents). Sulfonyl acetic acid derivatives are shelf stable as solid at rt for long time as reported by Griesbrecht et al. (Synlett 2010:374) or Faucher et al. (J. Med. Chem. 2004; 47:18).
(§2) LXR Gal4 Reporter Transient Transfection Assays
(§3) LXRα and LXRβ activity status was determined via detection of interaction with coactivator and corepressor proteins in mammalian two-hybrid experiments (M2H). For this, via transient transfection the full length (FL) proteins of LXRα (amino acids 1-447; NP005684; SEQ ID NO:1) or LXRβ-(amino acids 1-461; NP009052; SEQ ID NO:2) or the ligand-binding domains (LBD) of LXRα (amino acids 155-447 SEQ ID NO:3) or LXR (amino acids 156-461; SEQ ID NO:4) were expressed from pCMV-AD (Stratagene) as fusions to the transcriptional activation domain of NFkB. As cofactors, domains of either the steroid receptor coactivator 1 (SRC1; amino acids 552-887; SEQ ID NO:5) or of the corepressor NCoR (amino acids 1906-2312; NP006302; SEQ ID NO:6) were expressed as fusions to the DNA binding domain of the yeast transcription factor GAL4 (from pCMV-BD; Stratagene). Interaction was monitored via activation of a coexpressed Firefly Luciferase Reporter gene under control of a promoter containing repetitive GAL4 response elements (vector pFRLuc; Stratagene). Transfection efficiency was controlled via cotransfection of constitutively active pRL-CMV Renilla reniformis luciferase reporter (Promega). HEK293 cells were grown in minimum essential medium (MEM) with 2 mM L-glutamine and Earle's balanced salt solution supplemented with 8.3% fetal bovine serum, 0.1 mM non-essential amino acids, 1 mM sodium pyruvate, at 37° C. in 5% CO2. 3.5×10^4 cells/well were plated in 96-well cell culture plates in growth medium supplemented with 8.3% fetal bovine serum for 16-20 h to—90% confluency. For transfection, medium was taken off and LXR and cofactor expressing plasmids as well as the reporter plasmids are added in 30 μL OPTIMEM/well including polyethylene-imine (PEI) as vehicle. Typical amounts of plasmids transfected/well: pCMV-AD-LXR (5 ng), pCMV-BD-cofactor (5 ng), pFR-Luc (100 ng), pRL-CMV (0.5 ng). Compound stocks were prepared in DMSO, prediluted in MEM to a total volume of 120 μL, and added 4 h after addition of the transfection mixture (final vehicle concentration not exceeding 0.2%). Cells were incubated for additional 16 h, lysed for 10 min in 1×Passive Lysis Buffer (Promega) and Firefly and Renilla luciferase activities were measured sequentially in the same cell extract using buffers containing D-luciferine and coelenterazine, respectively. Measurements of luminescence were done in a BMG-luminometer.

Another experiment has as its target T2, LXRα full length (FL) (Homo sapiens, UniProt Q13133).
T2 construct: the full length (FL) proteins of LXRα (amino acids 1-447); NP005684; expressed in transfected cells; host or cells: HEK293
T2 sequence (Q13133 1-447): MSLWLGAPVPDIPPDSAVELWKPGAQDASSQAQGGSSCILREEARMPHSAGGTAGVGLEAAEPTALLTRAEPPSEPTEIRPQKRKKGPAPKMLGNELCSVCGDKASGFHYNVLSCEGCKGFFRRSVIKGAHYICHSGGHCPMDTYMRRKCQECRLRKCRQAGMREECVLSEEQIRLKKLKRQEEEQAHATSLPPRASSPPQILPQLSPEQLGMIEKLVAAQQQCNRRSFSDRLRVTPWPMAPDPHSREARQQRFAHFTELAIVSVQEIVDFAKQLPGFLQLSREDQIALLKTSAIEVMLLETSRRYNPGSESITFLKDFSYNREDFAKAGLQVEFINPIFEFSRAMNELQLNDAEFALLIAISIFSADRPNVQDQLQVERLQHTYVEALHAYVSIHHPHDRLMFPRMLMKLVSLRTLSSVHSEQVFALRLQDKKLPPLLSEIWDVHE
Kind of experiment: LXR Gal4 reporter transient transfection assay, mammalian two-hybrid, FL-M2H Gal4α. Format: cell-based. The conditions noted are these: HEK293 cells; inverse agonist unless *. The protocol:
as §1, §2, §3

Experiment [1] deals with T3, GST-LXRβ ligand-binding domain (Homo sapiens, UniProt P55055, INS174Q).
T3 construct: amino acids 156-461; NP009052; made in house; host or cells: E. coli
T3 sequence (P55055 with tags, fused parts or gaps INS174Q limits assumed): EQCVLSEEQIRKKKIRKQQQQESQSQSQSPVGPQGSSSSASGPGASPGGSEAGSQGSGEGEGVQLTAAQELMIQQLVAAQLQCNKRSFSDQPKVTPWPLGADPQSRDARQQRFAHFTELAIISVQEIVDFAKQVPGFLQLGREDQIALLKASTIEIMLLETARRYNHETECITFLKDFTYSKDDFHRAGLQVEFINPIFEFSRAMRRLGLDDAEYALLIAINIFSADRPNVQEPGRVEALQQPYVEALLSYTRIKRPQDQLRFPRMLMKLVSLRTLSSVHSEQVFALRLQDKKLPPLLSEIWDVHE
Description: TR-FRETβ activity assay (NCoA3 coactivator peptide recruitment). Format: biochemical. The conditions noted are these: 1 μM 24(S)-25-epoxycholesterol as prestimulating agonist; inverse agonist unless *. The procedure: The tested compounds were usually dissolved, tested and stored as 20 mM stock solutions in DMSO. […] Sulfonyl acetic acid derivatives are shelf stable as solid at rt for long time as reported by Griesbrecht et al. (Synlett 2010:374) or Faucher et al. (J. Med. Chem. 2004; 47:18). TR-FRETβ Activity Assay Recombinant GST-LXRβ ligand-binding domain (LBD; amino acids 156-461; NP009052; SEQ ID NO:4) was expressed in E. coli and purified via gluthatione-sepharose affinity chromatography. N-terminally biotinylated NCoA3 coactivator peptide (SEQ ID NO:7) was chemically synthesized (Eurogentec). […] Finally, a detection mix was added containing anti GST-Tb cryptate (CisBio; 610SAXLB) and Streptavidin-XL665 (CisBio; 610SAXLB) as fluorescent donor and acceptor, respectively, as well as the coactivator peptide and LXRβ-LBD protein (SEQ ID NO:4). The reaction was mixed thoroughly, equilibrated for 1 h at 4° C. and vicinity of LXRβ and coactivator peptide was detected by measurement of fluorescence in a VictorX4 multiplate reader (PerkinElmer Life Science) using 340 nm as excitation and 615 and 665 nm as emission wavelengths. Assays were performed in triplicates. Final Assay Concentrations of Components: 240 mM KCl, 1 μg/μL BSA, 0.002% Triton-X-100, 125 pg/μL anti GST-Tb cryptate, 2.5 ng/μL Streptavidin-XL665, coactivator peptide (400 nM), LXRP protein ([…], i.e. 76 nM).

This is an account of results in patent publication US20200131144A1, “AMINE OR (THIO)AMIDE CONTAINING LXR MODULATORS” (Phenex-FXR GmbH, priority 2017, published 2020).

One may read the EC50 as the midpoint of the concentration-response curve. A lower EC50 goes with higher potency in that assay.

For `Cc1ccc2ccccc2c1C(=O)N(Cc1ccc(C(F)(F)F)o1)C1COc2cc(-c3cccc(C(C)(C)C(=O)O)c3)ccc21` (stereo not drawn) [27/4], the concentration giving a half-maximal response (EC50) was 0.1 to 1 µM at LXRβ full length (FL), 0.1 to 1 µM on LXRα full length (FL) and above 10 µM in experiment [1].

Regarding `Cc1cc(C)c(CN(Cc2ccc(-c3cccc(S(=O)(=O)CC(=O)N(C)O)c3)cc2)Cc2ccc(C(F)(F)F)o2)c(C)c1` [5/2], the EC50 at LXRβ full length (FL) was below 0.1 µM; on LXRα full length (FL), 0.1 to 1 µM; in experiment [1], below 0.1 µM.

For the compound `Cc1nc2cccnc2c(C(=O)N(Cc2ccc(-c3cccc(C(C)(C)C(=O)O)c3)cc2)Cc2cncc(C(F)(F)F)c2)c1C` [27/131], the EC50 (on LXRβ full length (FL); at LXRα full length (FL); in experiment [1]) was 0.1 to 1 µM throughout.

For `Cc1nn2ncccc2c1C(=O)N(Cc1ccc(-c2cccc(C(C)(C)C(=O)O)c2)cc1)Cc1ccc(C(F)(F)F)o1` [27/122], the EC50 lay within 0.1 to 1 µM at LXRβ full length (FL), 0.1 to 1 µM at LXRα full length (FL) and 1 to 10 µM in experiment [1].

Turning to `CC(C)(C(=O)O)c1cccc(-c2ccc(CN(Cc3ccc(C(F)(F)F)o3)Cc3cccc4c3CCCO4)cc2)c1` [27/16], the EC50 at LXRβ full length (FL) was below 0.1 µM; at LXRα full length (FL), below 0.1 µM; in experiment [1], 0.1 to 1 µM.

Consider `Cc1nc2ccccc2c(C(=O)N(Cc2ccc(-c3cccc(C(C)(C)C(=O)O)c3)cc2)Cc2ccc(C(F)(F)F)o2)c1O` [27/120], for which the EC50 at LXRβ full length (FL) lay within 0.1 to 1 µM; on LXRα full length (FL), 0.1 to 1 µM; in experiment [1] it was 1 to 10 µM.

In the case of `Cc1ccc2ccccc2c1CN(Cc1ccc(-c2cccc(C(=O)C(=O)O)c2)cc1)Cc1ccc(C(F)(F)F)o1` [27/82], the EC50 fell in the range of 0.1 to 1 µM on LXRβ full length (FL), 0.1 to 1 µM on LXRα full length (FL) and 1 to 10 µM in experiment [1].

Turning to `Cc1cc(C)c(CN(Cc2ccc(-c3cccc(S(=O)(=O)CC(=O)O)c3)cc2)C(C)c2ccc(C(F)(F)F)o2)c(C)c1` (stereo not drawn) [7/12], the EC50 was in the range of 0.1 to 1 µM at LXRβ full length (FL), 0.1 to 1 µM on LXRα full length (FL) and 1 to 10 µM in experiment [1].

As to `CN1CCc2nc3ccccc3c(C(=O)N(Cc3ccc(-c4cccc(C(C)(C)C(=O)O)c4)cc3)Cc3ccc(C(F)(F)F)o3)c2C1` [27/80], the EC50 (at LXRβ full length (FL); on LXRα full length (FL); in experiment [1]) was 0.1 to 1 µM throughout.

For `Cc1cc(C)c(CN(Cc2ccc(-c3cccc(S(=O)(=O)CC(=O)O)c3)cc2)Cc2ccc(C(=O)N(C)C)o2)c(C)c1` [7/13], the EC50 (on LXRβ full length (FL); on LXRα full length (FL); in experiment [1]) was 1 to 10 µM throughout.

As to `Cc1nc2ccccc2c(C(=O)N(Cc2ccc(C(=O)N(C)C)o2)Cc2ncc(-c3cccc(C(C)C(=O)O)c3)cc2Cl)c1C` (stereo not drawn) [27/100], the EC50 was 1 to 10 µM at LXRβ full length (FL), 1 to 10 µM on LXRα full length (FL) and above 10 µM in experiment [1].

For the compound `CC(C)(C(=O)O)c1cccc(-c2ccc(CN(Cc3ccc(C(F)(F)F)o3)C(=O)c3cccc4ncncc34)cc2)c1` [27/13], the EC50 at LXRβ full length (FL) is below 0.1 µM; on LXRα full length (FL), 0.1 to 1 µM; in experiment [1], 1 to 10 µM.

On to `Cc1cnc2cccnc2c1C(=O)N(Cc1ccc(C(F)(F)F)o1)Cc1ccc(-c2cccc(C(C)(C)C(=O)O)c2)cc1Cl` [27/115], for which the results for the EC50 (on LXRβ full length (FL); on LXRα full length (FL); in experiment [1]) were below 0.1 µM, below 0.1 µM and 0.1 to 1 µM, respectively.

As for `Cc1ccc2ccccc2c1C(=O)N(Cc1ccc(C(F)(F)F)o1)Cc1ccc(-c2cccc(C(C)(C)C(=O)O)c2)cc1C(N)=O` [Example 17], the EC50 was 0.1 to 1 µM on LXRβ full length (FL), 1 to 10 µM at LXRα full length (FL) and above 10 µM in experiment [1].

Turning to `Cc1ccc2ccccc2c1C(=O)N(Cc1ccc(-c2cccc(S(=O)(=O)CC(=O)O)c2)cc1)Cc1ccc(C(F)(F)F)n1C` [Example 28, 2-((4′-((2-Methyl-N-((1-methyl-5-(trifluoromethyl)-1H-pyrrol-2-yl)methyl)-1-naphthamido)methyl)-[1,1′-biphenyl]-3-yl)sulfonyl)acetic acid], the EC50 is 1 to 10 µM at LXRβ full length (FL), 0.1 to 1 µM on LXRα full length (FL) and above 10 µM in experiment [1].

For `O=C(O)CS(=O)(=O)c1cccc(-c2ccc(CN(Cc3ccc(C(F)(F)F)o3)Cc3c(Cl)cccc3Cl)cc2)c1` [7/10], the EC50 at LXRβ full length (FL) lay in the range of 0.1 to 1 µM; on LXRα full length (FL), 1 to 10 µM; in experiment [1] it was 0.1 to 1 µM.

As to `Cc1ccc2ccccc2c1C(=O)N(Cc1ccc(C(F)(F)F)o1)Cc1ccc(-c2cncc(S(=O)(=O)CC(=O)O)c2)cc1C(F)(F)F` [27/62], the EC50 at LXRβ full length (FL) lay in the range of 0.1 to 1 µM; at LXRα full length (FL), 1 to 10 µM; in experiment [1], 1 to 10 µM.

Regarding `Cc1ccc2ccccc2c1CN(Cc1ccc(-c2cc(F)c(CO)c(S(=O)(=O)CC(=O)O)c2)cc1)Cc1ccc(C(F)(F)F)o1` [22/7], the EC50 at LXRβ full length (FL) was 0.1 to 1 µM; on LXRα full length (FL) it was 0.1 to 1 µM; in experiment [1], 1 to 10 µM.
